This note sets out measurements from patent US20130053337A1, “GUANIDINYLATED AMINOGLYCOSIDE-LIPID CONJUGATES” (UNIVERSITY OF MANITOBA, priority 2010, published 2013).

Data set [1] has as its system sheep red blood cell (erythrocytes). In words: Hemolytic assay (in vitro toxicity). The settings on record: for hemolytic activity at 100 mg/L: sheep erythrocytes, percent hemolysis. On the procedure: Antibacterial activity against Gram-positive and Gram-negative microorganisms was tested via broth macrodilution tests using CLSI methodology (Zhanel et al., 2008). Stock solutions of cationic lipids in water were brought to a concentration of 512 mg/L. Organisms were subcultured and isolated on blood agar, suspended in 3 mL of Mueller-Hinton broth at the turbidity of a […], and diluted to approximately 10^5 cfu/mL before introduction into tubes containing serially diluted lipopeptide antibiotic in Mueller-Hinton broth. Activity testing against S. pneumoniae used broth supplemented with laked horse blood to give 5% horse blood in experimental tubes. Turbidity of lipopeptide solution in broth required creation of control tubes lacking organisms serving as turbidity controls. All tubes were incubated overnight for 16-20 h at 37° C. […] All experiments were performed in duplicate. In-vitro toxicity was determined using a sheep red blood cell hemolytic assay as previously described (Dathe et al., 1996).
In vitro toxicity was determined using a sheep red blood cell (erythrocytes) hemolytic assay (Dathe et al., 1996). […] Erythrocytes were washed and resuspended in Tris buffered saline. The cell suspension was combined with varying concentrations (low to very high) of test and control antimicrobials (e.g., aminoglycosides and APTCs). The samples were centrifuged and the absorbance of the supernatants measured at 540 nm. Tris buffered saline and Triton X were used as negative and positive controls, respectively. The toxicity was assessed by percent hemolysis.

In data set [2] the test system is S. pneumoniae ATCC 49619. In words: MIC, broth macrodilution (CLSI), broth with 5% laked horse blood. It is filed as cell-based, Streptococcus pneumoniae. The settings on record: S. pneumoniae ATCC49619. On the procedure: (§1) All experiments were performed in duplicate.
(§2) Bacterial isolates studied included both reference strains obtained from the American Type Culture Collection (ATCC) as well as clinical strains obtained from the CAN-ICU study which was a national surveillance study assessing the prevalence of antimicrobial resistant pathogens in Canadian intensive care units (Zhanel et al., 2008). Isolates were kept frozen in skim milk at −80° C. until minimum inhibitory concentration (MIC) testing was carried out. Following two subcultures from frozen stock, the in vitro activities of peptides were determined by macrobroth dilution in accordance with the Clinical and Laboratory Standards Institute (CLSI) 2006 guidelines (Zhanel et al., 2008). Stock solutions of peptides were prepared and dilutions made as described by CLSI. Test tubes contained doubling antimicrobial dilutions of cation adjusted Mueller-Hinton broth and inoculated to achieve a final concentration of approximately 5×10^5 cfu/ml then incubated in ambient air for 24 hours prior to reading. Colony counts were performed periodically to confirm inocula. Quality control was regularly performed using ATCC QC organisms.

The test system of data set [3] is E. faecalis ATCC 29212. In words: MIC, broth macrodilution (CLSI). It is filed as cell-based, Enterococcus faecalis. The settings on record: E. faecalis ATCC29212. On the procedure:
as §1, §2

Data set [4] has as its system S. aureus ATCC 29213. In words: MIC, broth macrodilution (CLSI). The data set is classed as cell-based, Staphylococcus aureus. The note with it: S. aureus ATCC29213. On the procedure:
as §1, §2

In data set [5] the test system is S. epidermidis ATCC 14990. In words: MIC, broth macrodilution (CLSI). The data set is classed as cell-based, Staphylococcus epidermidis. The settings on record: S. epidermidis ATCC14990. As to the method:
as §1, §2

The subject of data set [6] is E. faecium ATCC 27270. In words: MIC, broth macrodilution (CLSI). It is filed as cell-based, Enterococcus faecium. The note with it: E. facium ATCC27270. On the procedure: as §1, §2
Data set [7] relates to MRSE CAN-ICU 61589. In words: MIC, broth macrodilution (CLSI). The data set is classed as cell-based, methicillin-resistant Staphylococcus epidermidis. On the procedure:
as §1, §2

For data set [8], the system named is P. aeruginosa (gentamicin-resistant) CAN-ICU 62308. In words: MIC, broth macrodilution (CLSI). It is filed as cell-based. On the procedure: as §1, §2
The test system of data set [9] is E. coli (gentamicin-resistant) CAN-ICU 61714. In words: MIC, broth macrodilution (CLSI). It is filed as cell-based. The note with it: E. coli CAN-ICU 61714. As to the method: as §1, §2
The subject of data set [10] is E. coli (amikacin MIC 32 mg/L) CAN-ICU 63074. In words: MIC, broth macrodilution (CLSI). It is filed as cell-based. The note with it: E. coli CAN-ICU 63074. As to the method: as §1, §2
The test system of data set [11] is E. coli ATCC 25922. In words: MIC, broth macrodilution (CLSI). The data set is classed as cell-based. The settings on record: E. coli ATCC25922. On the procedure: as §1, §2
In data set [12] the test system is P. aeruginosa ATCC 27853. In words: MIC, broth macrodilution (CLSI). It is filed as cell-based. The settings on record: P. aeruginosa ATCC27853. As to the method: as §1, §2
Data set [13] deals with MRSA ATCC 33592. In words: MIC, broth macrodilution (CLSI). The data set is classed as cell-based, methicillin-resistant Staphylococcus aureus. The settings on record: for MIC: MRSA ATCC33592; for fold lower MIC (MRSA) compared to analogs 6 and 7: guanidinylated vs polyamine analog. On the procedure: as §1, §2
Where [14] appears, read: gentamicin-resistant (as well as neomycin B and kanamycin A-resistant) P. aeruginosa strain.

On to `CCCCCCCCCCCC(=O)NCC1OC(OC2C(O)C(NC(=N)N)CC(NC(=N)N)C2OC2OC(CNC(=N)N)C(O)C(O)C2NC(=N)N)C(O)C1OC1OC(CNC(=N)N)C(O)C(O)C1NC(=N)N.O=C(O)C(F)(F)F.O=C(O)C(F)(F)F.O=C(O)C(F)(F)F.O=C(O)C(F)(F)F.O=C(O)C(F)(F)F.O=C(O)C(F)(F)F` (centres unmarked) [Compound 9, 1,3,2′,6′,2′″,6′″-Hexaammonium-guanidinyl-5″-deoxy-5″-N-(dodecanoyl)-neomycin hexakis(trifluoroacetate)], for which, in [1], the “hemolytic activity at 100 mg/L” value is listed as 2%. Also, the MIC in data set [2] was 64 µg/mL; in data set [3], 32 µg/mL; in data set [4], 4 µg/mL; in [5] it was 2 µg/mL; in data set [6], 16 µg/mL; in [7], 2 µg/mL. Also, the MIC turned out to be 32 µg/mL in [8] (P. aeruginosa CAN-ICU 62308); 32 µg/mL in data set [9]; 16 µg/mL in [10]; 16 µg/mL in [11]; 32 µg/mL in data set [12]; 8 µg/mL in data set [13].

Take `CCCCCCCCCCCCCCCC(=O)NCC1OC(OC2C(O)C(NC(=N)N)CC(NC(=N)N)C2OC2OC(CNC(=N)N)C(O)C(O)C2NC(=N)N)C(O)C1OC1OC(CNC(=N)N)C(O)C(O)C1NC(=N)N.O=C(O)C(F)(F)F.O=C(O)C(F)(F)F.O=C(O)C(F)(F)F.O=C(O)C(F)(F)F.O=C(O)C(F)(F)F.O=C(O)C(F)(F)F` (centres unmarked) [Compound 10, 1,3,2′,6′,2′″,6′″-Hexaammonium-guanidinyl-5″-deoxy-5″-N-(hexadecanoyl)-neomycin hexakis(trifluoroacetate)]: the “hemolytic activity at 100 mg/L” value in [1] is on record as 13%. Further, the “hemolytic activity compared to polyamine analogs 3 and 15” value in data set [1] (in words) is recorded as “reduced hemolytic activity”. Also, the MIC in data set [2] worked out at 32 µg/mL; in [3] it was 4 µg/mL; in data set [4], 4 µg/mL; in data set [5], 1 µg/mL; in [6], 0.5 µg/mL; in data set [7], 4 µg/mL. The MIC came to 8 µg/mL in data set [8] (P. aeruginosa CAN-ICU 62308); 8 µg/mL in [8] (setting [14]); 64 µg/mL in data set [9]; 32 µg/mL in [10]; 32 µg/mL in data set [11]; 32 µg/mL in [12]. In addition, the MIC in data set [13] stood at 4 µg/mL.

In the case of `CCCCCCCCCCCCCCCCCCCC(=O)NCC1OC(OC2C(O)C(NC(=N)N)CC(NC(=N)N)C2OC2OC(CNC(=N)N)C(O)C(O)C2NC(=N)N)C(O)C1OC1OC(CNC(=N)N)C(O)C(O)C1NC(=N)N.O=C(O)C(F)(F)F.O=C(O)C(F)(F)F.O=C(O)C(F)(F)F.O=C(O)C(F)(F)F.O=C(O)C(F)(F)F.O=C(O)C(F)(F)F` (centres unmarked) [Compound 11], the “hemolytic activity at 100 mg/L” value in data set [1] came to 82%. The MIC in data set [2] came out at 64 µg/mL; in data set [3] it was 32 µg/mL; in data set [4] it was 32 µg/mL; in [5], 4 µg/mL; in [6], 2 µg/mL; in data set [7] it was 4 µg/mL. The MIC in data set [8] (P. aeruginosa CAN-ICU 62308) was found to be 64 µg/mL; in data set [9], 128 µg/mL; in data set [10] it was 128 µg/mL; in [11] it was 64 µg/mL; in data set [12] it was 128 µg/mL; in [13], 32 µg/mL.

In the case of `CCCCC/C=C\C/C=C\CCCCCCCC(=O)NCC1OC(OC2C(O)C(NC(=N)N)CC(NC(=N)N)C2OC2OC(CNC(=N)N)C(O)C(O)C2NC(=N)N)C(O)C1OC1OC(CNC(=N)N)C(O)C(O)C1NC(=N)N.O=C(O)C(F)(F)F.O=C(O)C(F)(F)F.O=C(O)C(F)(F)F.O=C(O)C(F)(F)F.O=C(O)C(F)(F)F.O=C(O)C(F)(F)F` (centres unmarked) [Compound 12, 1,3,2′,6′,2′″,6′″-Hexaammonium-guanidinyl-5″-deoxy-5″-N-(9Z,12Z,octadeca-di-ene-oyl)-neomycin hexakis(trifluoroacetate)], in data set [1], the “hemolytic activity at 100 mg/L” value is 1%. Further, the MIC was 128 µg/mL in data set [2]; 64 µg/mL in [3]; 8 µg/mL in data set [4]; 4 µg/mL in data set [5]; 64 µg/mL in [6]; 8 µg/mL in data set [7]. Besides, the MIC in data set [8] (P. aeruginosa CAN-ICU 62308) was 64 µg/mL; in data set [9], 128 µg/mL; in data set [10] it was 64 µg/mL; in data set [11], 64 µg/mL; in data set [12], 128 µg/mL; in data set [13], 16 µg/mL.

Turning to `N=C(N)NCC1OC(OC2C(CNC(=O)CCCc3ccc4ccc5cccc6ccc3c4c56)OC(OC3C(O)C(NC(=N)N)CC(NC(=N)N)C3OC3OC(CNC(=N)N)C(O)C(O)C3NC(=N)N)C2O)C(NC(=N)N)C(O)C1O.O=C(O)C(F)(F)F.O=C(O)C(F)(F)F.O=C(O)C(F)(F)F.O=C(O)C(F)(F)F.O=C(O)C(F)(F)F.O=C(O)C(F)(F)F` (centres unmarked) [Compound 13, 1,3,2′,6′,2′″,6′″-Hexaammonium-guanidinyl-5″-deoxy-5″-N-((4-pyrenyl)-butanoyl)-neomycin hexakis(trifluoroacetate)], in [1], the “hemolytic activity at 100 mg/L” value is on record as 3%. Also, the MIC in [2] worked out at 64 µg/mL; in [3], 32 µg/mL; in data set [4] it was 8 µg/mL; in [5] it was 8 µg/mL; in data set [6], 16 µg/mL; in data set [7], 8 µg/mL. The MIC in data set [8] (P. aeruginosa CAN-ICU 62308) was found to be 16 µg/mL; in [8] (setting [14]), 16 µg/mL; in data set [9], 32 µg/mL; in data set [10], 32 µg/mL; in data set [11], 32 µg/mL; in data set [12], 32 µg/mL. Besides, in data set [13], the MIC worked out at 8 µg/mL. In addition, in data set [13], the “fold lower MIC (MRSA) compared to analogs 6 and 7” value came out at 32 fold.

Consider `CC(CCC(=O)NCC1OC(OC2C(O)C(NC(=N)N)CC(NC(=N)N)C2OC2OC(CNC(=N)N)C(O)C(O)C2NC(=N)N)C(O)C1OC1OC(CNC(=N)N)C(O)C(O)C1NC(=N)N)C1CCC2C3C(O)CC4CC(O)CCC4(C)C3CC(O)C12C.O=C(O)C(F)(F)F.O=C(O)C(F)(F)F.O=C(O)C(F)(F)F.O=C(O)C(F)(F)F.O=C(O)C(F)(F)F.O=C(O)C(F)(F)F` (centres unmarked) [Compound 14, 1,3,2′,6′,2′″,6′″-Hexaammonium-guanidinyl-5″-deoxy-5″-N-(cholanoyl)-neomycin hexakis(trifluoroacetate)], for which the “hemolytic activity at 100 mg/L” value in data set [1] turned out to be 2%. The MIC in data set [2] was determined as 64 µg/mL; in data set [3], 32 µg/mL; in data set [4], 16 µg/mL; in data set [5], 4 µg/mL; in data set [6], 16 µg/mL; in data set [7], 8 µg/mL. Moreover, the MIC in [8] (P. aeruginosa CAN-ICU 62308) was 32 µg/mL; in data set [9] it was 64 µg/mL; in data set [10], 32 µg/mL; in [11], 64 µg/mL; in [12] it was 128 µg/mL; in data set [13] it was 16 µg/mL. In data set [13], the “fold lower MIC (MRSA) compared to analogs 6 and 7” value was 8 fold.

For orientation: MIC means the least concentration at which growth counts as inhibited.
